Experimental data reported in US7105162B1, “Pharmaceutical composition for immunomodulation based on peptides and adjuvants” (Boehringer Ingelheim International GmbH, priority 1996, dated 2006).

What was measured:
APCs = assay: Internalisation of FITC-labelled peptide (monensin treatment, 4° C. versus 37° C.), throughflow cytometry; format: cell-based; conditions: incubated at 37° C., then 50 μM monensin at 4° C.; FIG. 13
Protocol: Peptides can be absorbed by APCs by means of specific mechanisms such as macropinocytosis or receptor-mediated endocytosis (Lanzavecchia, 1996). An alternative mechanism may consist in the polyamino acids making the cell membrane permeable and in this way allowing peptides to diffuse from the medium into the cytoplasm. • a) The possible permeabilisation of the cell membrane was tested by measuring the release of the cytoplasmic enzyme lactate dehydrogenase (LDH) after the incubation of P388D1 cells with polyamino acids (polylysine or polyarginine) under isotonic conditions using the commercially available kit (Cytotox 96, Promega, Madison, Wis., USA) in accordance with the manufacturer's instructions. […] The fluorescence emitted by FITC is strongly pH-dependent. In an environment with pH conditions such as those found in endosomes, fluorescence is suppressed. Therefore, FITC-labelled peptides which are absorbed by the cells into the endosomes show reduced fluorescence. When monensin is added, the low pH of the endosomes is neutralised, leading to a measurably greater fluorescence of the internalised FITC-labelled peptides.
The cells were incubated with a mixture of polyarginine (average molecular weight range 100,000, chain length 490) and fluorescence-labelled peptide at 4° C. or 37° C. […]

P388D1 cells = assay: Permeabilisation of the cell membrane: LDH release (Cytotox 96); format: cell-based, murine; conditions: isotonic conditions; FIG. 12
Protocol: Peptides can be absorbed by APCs by means of specific mechanisms such as macropinocytosis or receptor-mediated endocytosis (Lanzavecchia, 1996). An alternative mechanism may consist in the polyamino acids making the cell membrane permeable and in this way allowing peptides to diffuse from the medium into the cytoplasm. • a) The possible permeabilisation of the cell membrane was tested by measuring the release of the cytoplasmic enzyme lactate dehydrogenase (LDH) after the incubation of P388D1 cells with polyamino acids (polylysine or polyarginine) under isotonic conditions using the commercially available kit (Cytotox 96, Promega, Madison, Wis., USA) in accordance with the manufacturer's instructions. […] When samples treated with polyamino acids alone were compared, no difference in the release of LDH was found compared with treatment with a mixture of polylysine or polyarginine with peptide. […] The fluorescence emitted by FITC is strongly pH-dependent. In an environment with pH conditions such as those found in endosomes, fluorescence is suppressed. Therefore, FITC-labelled peptides which are absorbed by the cells into the endosomes show reduced fluorescence. When monensin is added, the low pH of the endosomes is neutralised, leading to a measurably greater fluorescence of the internalised FITC-labelled peptides.

Sequence: LFEAIEGFI [FITC-labelled model peptide antigen, MHC Kd-restricted, derived from influenza haemagglutinin]
- change in fluorescence after monensin treatment (APCs): only a slight increase in fluorescence
- LDH released from cells (P388D1 cells): no measurable LDH-activity
